In patent US20230357139A1, “SMALL MOLECULE INHIBITORS OF BACTERIAL TOXINS” (Artizan Biosciences, Inc., priority 2020, published 2023):
Like-named read-outs stand apart in the source and are kept apart here.

Experiments:
[1] = biological target: Gelatinase E (GelE) (Enterococcus faecalis (strain ATCC 700802 / V583), UniProt Q833V7); test: Gelatinase E activity assay (FRET peptide substrate); assay type: biochemical; details: for IC50: Table 11
Description: Gelatinase E (Gel E) was purified from bacterial culture supernatant from E. faecalis. E. faecalis was cultured aerobically in Todd Hewitt Broth overnight at 37° C. Nucleic acid was precipitated with 0.9% protamine solution, followed by protein precipitation with ammonium sulfate. Resuspended protein pellet was further subjected to purification using FPLC (phenyl Sepharose column). Fractions with gelatinase activity as determined by casein agar assay were pooled and further concentrated.
Different concentrations of test compound were incubated with purified GelE and FRET-based peptide substrate (390 MMP FRET Substrate 1; Anaspec AS-27077) in assay buffer at room temperature for 30 minutes. The fluorescence signal was determined by a plate reader.

[2] = biological target: collagenase H (ColH) (Hathewaya histolytica, UniProt Q46085); test: biochemical; set-up: species or system Clostridium histolyticum
[3] = test system: recombinant BFT (rBFT); test: NFF-3 cleavage assay; assay type: biochemical, B. fragilis
Description: A NFF-3 cleavage assay was used to test activity of recombinant BFT, before or after addition of various inhibitors. The NFF-3 cleavage assay was previously described by Goulas et al., PNAS, 2011, 108(5) 1856-1861, which is incorporated by reference herein in its entirety.
Initially, recombinant BFT (rBFT) (0.25, 0.5, 1, 2, 4, 8, or 16 μg/mL) was incubated at 37° C. with the fluorogenic substrate NFF-3 (Cayman Chemical) at a concentration of 2.5 μM, 5 μM, or 10 μM. After 18 hours, fluorescence was measured in a microplate fluorimeter.
Next, rBFT was pre-incubated with one or more test compounds at different concentrations for 30 minutes at 37° C. The rBFT-compound mixture was then added to NFF-3 and incubated for 24 hours at 37° C. Fluorescence was then measured in a microplate fluorimeter.

[4] = test system: BFT; test: E-cadherin release assay (BFT-induced E-cadherin release from HT29 cells); assay type: cell-based, B. fragilis
Description: Test compounds were also screened for their ability to inhibit BFT-induced E-cadherin release from HT29 cells.
Different concentrations of test compounds were pre-incubated with rBFT for one hour at 37° C. The rBFT-compound mixture was then added to HT29 cells and incubated at 37° C. for 18 hours. Following incubation, cell supernatants were harvested and E-cadherin was quantified in the supernatants by ELISA (FIG. 2).

[5] = test system: ETBF; test: ETBF-mediated disease model in mono-colonized germ-free mice; assay type: in vivo; details: for lipocalin2 levels: 15-50 mg/kg p.o., QD
Description: Test compounds were also screened in vivo. Germ-free (GF) mice were mono-colonized with ETBF on day 0. […] Markers of injury and inflammation (e.g., cecal weight and fecal lipocalin 2) were analyzed on day 4 (FIG. 6A). Sample size was 5-6 mice per group.

[6] = rBFT pre-incubated with compound 30 minutes at 37° C., then NFF-3 for 24 hours, read-out: NFF3 IC50
[7] = 18 hours, E-cadherin in supernatant by ELISA, read-out: HT29 Cell IC50
[8] = ETBF-colonized mice, 50 mg/kg oral BID days 1-3, analyzed day 4

Gelatinase E (GelE), sequence (Q833V7 193-510 limits assumed): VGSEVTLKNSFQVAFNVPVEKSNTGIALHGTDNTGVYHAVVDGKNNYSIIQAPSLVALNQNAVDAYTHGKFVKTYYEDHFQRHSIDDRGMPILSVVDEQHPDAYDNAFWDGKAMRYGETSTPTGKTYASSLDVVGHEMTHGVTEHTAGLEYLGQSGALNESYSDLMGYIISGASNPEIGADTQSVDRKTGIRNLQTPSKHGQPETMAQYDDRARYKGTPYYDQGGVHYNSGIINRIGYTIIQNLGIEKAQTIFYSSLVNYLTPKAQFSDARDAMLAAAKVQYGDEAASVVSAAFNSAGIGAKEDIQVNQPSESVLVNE
collagenase H (ColH), sequence (Q46085 41-1021 limits assumed): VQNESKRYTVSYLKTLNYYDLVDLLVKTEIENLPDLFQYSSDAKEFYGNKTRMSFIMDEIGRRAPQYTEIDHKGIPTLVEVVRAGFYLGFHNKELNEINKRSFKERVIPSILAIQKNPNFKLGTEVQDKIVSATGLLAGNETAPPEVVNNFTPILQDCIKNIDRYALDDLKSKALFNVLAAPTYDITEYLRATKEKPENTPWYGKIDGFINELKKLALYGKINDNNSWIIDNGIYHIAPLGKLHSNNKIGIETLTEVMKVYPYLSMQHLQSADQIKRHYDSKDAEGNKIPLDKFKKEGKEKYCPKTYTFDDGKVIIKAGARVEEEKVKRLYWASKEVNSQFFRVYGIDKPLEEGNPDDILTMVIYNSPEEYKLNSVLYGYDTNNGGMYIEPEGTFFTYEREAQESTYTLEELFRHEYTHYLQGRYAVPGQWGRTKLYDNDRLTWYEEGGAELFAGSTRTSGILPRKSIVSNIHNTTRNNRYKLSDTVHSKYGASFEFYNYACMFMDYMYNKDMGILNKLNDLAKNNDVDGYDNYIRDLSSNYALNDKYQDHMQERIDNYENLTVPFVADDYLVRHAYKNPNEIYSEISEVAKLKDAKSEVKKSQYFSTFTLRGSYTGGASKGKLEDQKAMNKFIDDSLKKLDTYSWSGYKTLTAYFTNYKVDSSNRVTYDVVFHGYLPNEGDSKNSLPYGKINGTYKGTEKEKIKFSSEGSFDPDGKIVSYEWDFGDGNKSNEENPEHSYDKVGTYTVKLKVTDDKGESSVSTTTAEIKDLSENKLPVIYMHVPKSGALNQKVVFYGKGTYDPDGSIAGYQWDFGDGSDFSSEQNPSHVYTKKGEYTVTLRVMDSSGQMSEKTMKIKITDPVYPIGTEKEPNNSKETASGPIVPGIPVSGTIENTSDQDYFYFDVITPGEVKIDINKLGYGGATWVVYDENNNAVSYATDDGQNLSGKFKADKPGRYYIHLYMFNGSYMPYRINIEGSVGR

COc1ccc(S(=O)(=O)N(CC(=O)NO)CC(C)C)cc1 [A]
GelE inhibition ([1]; FIG. 7): high levels of GelE inhibition
IC50 [1]: 202 nM
ColH inhibition [2]: high levels of ColH inhibition
IC50 ([2]; read-out: ColH IC50): 612 nM

CCOc1ccc(S(=O)(=O)N(CC(=O)NO)CC(C)C)cc1 [C]
IC50 [1]: 372 nM
IC50 ([2]; read-out: ColH IC50): > 100000 nM

CCCOc1ccc(S(=O)(=O)N(CC(=O)NO)CC(C)C)cc1 [D]
IC50 [1]: 489 nM
IC50 ([2]; read-out: ColH IC50): > 100000 nM

CC(C)CN(CC(=O)NO)S(=O)(=O)c1ccc(OC(C)C)cc1 [E]
IC50 [1]: 1210 nM
IC50 ([2]; read-out: ColH IC50): > 100000 nM

CC(C)C[C@H](C(=O)NO)N(Cc1cccnc1)S(=O)(=O)c1ccc(O)cc1 [Example 1, (R)—N-hydroxy-2-((4-hydroxy-N-(pyridin-3-ylmethyl)phenyl)sulfonamido)-4-methylpentanamide]
IC50 [3, 6]: < 150 nM
IC50 [4, 7]: 1520 nM

C[C@H](O)[C@H](C(=O)NO)N(Cc1cccnc1)S(=O)(=O)c1ccc(O)cc1 [Example 2]
IC50 [3, 6]: > 1000 nM
IC50 [4, 7]: 6720 nM

CSCC[C@H](C(=O)NO)N(Cc1cccnc1)S(=O)(=O)c1ccc(O)cc1 [Example 3]
IC50 [3, 6]: 240 nM
IC50 [4, 7]: 3840 nM

O=C(NO)[C@@H](Cc1ccc(O)cc1)N(Cc1cccnc1)S(=O)(=O)c1ccc(O)cc1 [Example 4]
IC50 [3, 6]: 2040 nM
IC50 [4, 7]: 6330 nM

O=C(NO)[C@@H](Cc1ccccc1)N(Cc1cccnc1)S(=O)(=O)c1ccc(O)cc1 [Example 5]
IC50 [3, 6]: 240 nM
IC50 [4, 7]: 4910 nM

O=C(NO)[C@@H](Cc1c[nH]c2ccccc12)N(Cc1cccnc1)S(=O)(=O)c1ccc(O)cc1 [Example 6]
IC50 [3, 6]: 150 nM
IC50 [4, 7]: 1620 nM

COc1ccc(S(=O)(=O)N(Cc2cccnc2)[C@H](Cc2ccccc2)C(=O)NO)cc1 [Example 19]
IC50 [3, 6]: 1240 nM
IC50 [4, 7]: 8260 nM

O=C(NO)[C@@H](Cc1ccc(C(F)(F)F)cc1)N(Cc1cccnc1)S(=O)(=O)c1ccc(O)cc1 [Example 20]
IC50 [3, 6]: 860 nM
IC50 [4, 7]: 7320 nM

COc1ccc(S(=O)(=O)N(Cc2cccnc2)[C@H](Cc2ccc(C(F)(F)F)cc2)C(=O)NO)cc1 [Example 21]
IC50 [3, 6]: 2750 nM
IC50 [4, 7]: > 16000 nM

O=C(NO)C(c1ccccc1)N(Cc1cccnc1)S(=O)(=O)c1ccc(O)cc1 (centres unmarked) [Example 22]
IC50 [3, 6]: 660 nM
IC50 [4, 7]: 17300 nM

O=C(NO)C(c1ccc(F)cc1)N(Cc1cccnc1)S(=O)(=O)c1ccc(O)cc1 (centres unmarked) [Example 23]
IC50 [3, 6]: 300 nM
IC50 [4, 7]: > 50000 nM

O=C(CN(Cc1cccnc1)S(=O)(=O)c1ccc(O)cc1)NO [Example 24]
IC50 [3, 6]: 1100 nM
IC50 [4, 7]: 19100 nM

CC[C@H](C(=O)NO)N(Cc1cccnc1)S(=O)(=O)c1ccc(O)cc1 [Example 25]
IC50 [3, 6]: 90 nM
IC50 [4, 7]: 780 nM

CC(C)C[C@H](C(=O)NO)N(Cc1ccc(F)cc1)S(=O)(=O)c1ccc(O)cc1 [Example 26]
IC50 [2]: 19300 nM
IC50 [4, 7]: 1280 nM

CC(C)C[C@H](C(=O)NO)N(Cc1cccnc1)S(=O)(=O)c1cccc(O)c1 [Example 27]
IC50 [3, 6]: 5950 nM
IC50 [4, 7]: > 50000 nM

CC(C)C[C@H](C(=O)NO)N(Cc1ccncc1)S(=O)(=O)c1ccc(O)cc1 [Example 28]
IC50 [4, 7]: 198 nM

CC(C)C[C@H](C(=O)NO)N(Cc1cscn1)S(=O)(=O)c1ccc(O)cc1 [Example 30]
IC50 [4, 7]: 970 nM

COc1cccc(S(=O)(=O)N(Cc2cccnc2)[C@H](CC(C)C)C(=O)NO)c1 [Example 31]
IC50 [3, 6]: 20100 nM
IC50 [4, 7]: > 50000 nM

CC(C)C[C@H](C(=O)NO)N(Cc1cnco1)S(=O)(=O)c1ccc(O)cc1 [Example 32]
IC50 [3, 6]: 510 nM
IC50 [4, 7]: 5170 nM

CC(C)C[C@H](C(=O)NO)N(Cc1ccc2[nH]ccc2c1)S(=O)(=O)c1ccc(O)cc1 [Example 33]
IC50 [3, 6]: 140 nM
IC50 [2]: 384 nM
IC50 [4, 7]: 1740 nM

CCC[C@H](C(=O)NO)N(Cc1cccnc1)S(=O)(=O)c1ccc(O)cc1 [Example 42]
IC50 [3, 6]: 90 nM
lipocalin2 levels [5]: significantly reduce
IC50 [2]: 8780 nM

CC[C@H](C(=O)NO)N(CCc1cccnc1)S(=O)(=O)c1ccc(O)cc1 [Example 60, (R)—N-hydroxy-2-((4-hydroxy-N-(2-(pyridin-3-yl)ethyl)phenyl)sulfonamido)butanamide]
IC50 [3, 6]: 18.8 nM
lipocalin2 levels [5]: significantly reduce
IC50 [2]: 3820 nM

CCC[C@H](C(=O)NO)N(Cc1ccc2[nH]ccc2c1)S(=O)(=O)c1ccc(O)cc1 [Example 63]
IC50 [2]: 8890 nM

CC(C)CN(CC(=O)NO)S(=O)(=O)c1ccc(OCc2ccc(F)cc2)cc1 [F]
IC50 [1]: 649 nM
IC50 ([2]; read-out: ColH IC50): > 100000 nM

COCCOc1ccc(S(=O)(=O)N(CC(=O)NO)CC(C)C)cc1 [G]
IC50 [1]: 443 nM
IC50 ([2]; read-out: ColH IC50): > 100000 nM

COc1ccc(S(=O)(=O)N(CC(=O)O)Cc2cccnc2)cc1 [I]
IC50 [1]: > 100000 nM
IC50 ([2]; read-out: ColH IC50): > 100000 nM

CNC(=O)COc1ccc(S(=O)(=O)N(CC(=O)NO)CC(C)C)cc1 [K]
IC50 [1]: 512 nM
IC50 [2]: > 100000 nM

COc1ccc(S(=O)(=O)N(CC(=O)NO)CC(C)C)cn1 [L]
IC50 [1]: 336 nM
IC50 ([2]; read-out: ColH IC50): > 100000 nM

CSc1ccc(S(=O)(=O)N(CC(=O)NO)CC(C)C)cc1 [M]
IC50 [1]: 257 nM
IC50 ([2]; read-out: ColH IC50): > 100000 nM

CC(C)[C@H](C(=O)NO)N(Cc1cccnc1)S(=O)(=O)c1ccc(O)cc1 [OH-CGS-23270A, 2(R)-[4-Hydroxy-N-(3-pyridylmethyl)phenylsulfonamido]-3-methylbutyrohydroxamic acid, reference compound]
cecal weight compared to vehicle control [5, 8]: significantly increased
fecal lipocalin2 compared to vehicle control [5, 8]: significantly decreased

CC(C)[C@H](C(=O)NO)N(Cc1cccnc1)S(=O)(=O)c1ccc(O)cc1 [OH-CGS-27023A, 2(R)-[4-hydroxy-N-(3-pyridylmethyl)phenylsulfonamido]-3-methylbutyrohydroxamic acid, reference compound]
IC50 ([3]; Table 9, FIG. 5B, read-out: IC50, inhibition of BFT-induced NFF-3 release): 366 nM
IC50 ([4]; FIG. 4, read-out: IC50, inhibition of BFT (E-cadherin release)): 1990 nM

COc1ccc(S(=O)(=O)N(CC(=O)NO)CC(F)F)cc1 [P]
IC50 [1]: 9090 nM
IC50 ([2]; read-out: ColH IC50): > 100000 nM
